{"source": "patent US12286632B2", "about": "“Rationally-designed synthetic peptide shuttle agents for delivering polypeptide cargos from an extracellular space to the cytosol and/or nucleus of a target eukaryotic cell, uses thereof, methods and kits relating to same” (Feldan Bio Inc., priority 2016, dated 2025)", "key": {"[1]": {"tested_on": "rat parietal cortex", "test": "In vivo GFP-NLS delivery by stereotaxic injection, fluorescence microscopy of brain slices", "conditions": "shuttle 20 μM + GFP-NLS 20 μM, 5 μL injected over 10 min; sacrificed 2 h after surgery", "method": "In separate sterile 1.5-mL tubes, shuttle agent His-CM18-PTD4 was diluted in sterile distilled water at room temperature. […] One negative control was included for the experiment, which corresponds to the injection of the GFP-NLS alone.\nBilateral injections were performed in the parietal cortex of three rats. In the left parietal cortex (ipsilateral), a mix composed of the shuttle agent (20 μM) and the GFP-NLS (20 μM) was injected, and in the right parietal cortex (contralateral), only the GFP-NLS (20 μM) was injected as a negative control. For surgical procedures, […] were anesthetized with isoflurane. Then the animal was placed in a stereotaxic frame, and the skull surface was exposed. Two holes were drilled at the appropriate sites to allow bilateral infusion of the shuttle/cargo mix or GFP-NLS alone (20 μM) with 5-μL Hamilton syringe. Antero-posterior (AP), lateral (L), and dorso-ventral (DV) coordinates were taken relative to the bregma: (a) AP+0.48 mm, L±3 mm, V-5 mm; (b) AP-b 2 mm, L±1.3 mm, V-1.5 mm; (c) AP-2.6 mm, L 1.5 mm, V-1.5 mm. The infused volume of the shuttle/cargo mix or cargo alone was 5 μL per injection site and the injection was performed for 10 minutes. […]\nDorso-ventral rat brain slices were collected and analysed by fluorescence microscopy and results are shown in at 4× (FIG. 48A), 10× (FIG. 48C) and 20× (FIG. 48D) magnifications. […]"}, "[2]": {"tested_on": "CA46 cells", "test": "GFP-NLS transduction in different adherent and suspension cells (flow cytometry, Pos cells % and viability %)", "type": "cell-based, Homo sapiens", "conditions": "Protocol C, 5 μM shuttle, 5 μM GFP-NLS, 15 seconds", "method": "The ability of the shuttle agent His-CM18-PTD4 to deliver GFP-NLS to the nuclei of different adherent and suspension cells using Protocols B (adherent cells) or C (suspension cells) as described in Example 9.1 was examined. The cell lines tested included: HeLa, Balb3T3, HEK 293T, CHO, NIH3T3, Myoblasts, Jurkat, THP-1, CA46, and HT2 cells, which were cultured as described in Example 1. GFP-NLS (5 μM; see Example 5.1) was co-incubated with 35 μM of His-CM18-PTD4 and exposed to adherent cells for 10 seconds (Protocol B), or was co-incubated with 5 μM of His-CM18-PTD4 and exposed to suspension cells for 15 seconds (Protocol C). […] “Pos cells (%)” is the mean percentages of all cells that emanate a GFP signal."}, "[3]": {"tested_on": "HeLa cells", "test": "Transfection plasmid surrogate assay for delivered CRISPR/Cas9-NLS complex (mCherry/GFP fluorescence)", "type": "cell-based, Human", "conditions": "shuttle 35 μM; 24 and 48 hours post-transduction", "excerpt": "This assay enables one to visually identify cells that have been successfully delivered an active […]as9 complex. […] Transfection of the cells with the expression plasmid results in mCherry™ expression, but no GFP expression (FIG. 39B). […] Successful transduction of an active CRISPR/Cas9 complex results in the CRISPR/Cas9 complex cleaving the plasmid DNA at the STOP codon (FIG. 39C). In a fraction of the cells, random non-homologous DNA repair of the cleaved plasmid occurs and results in removal of the STOP codon, and thus GFP expression and fluorescence (FIG. 39E).\nOn Day 1 of the transfection plasmid surrogate assay, DNA plasmids for different experimental conditions (250 ng) are diluted in DMEM (50 μL) in separate sterile 1.5-mL tubes, vortexed and briefly centrifuged. In separate sterile 1.5-mL tubes, Fastfect™ transfection reagent was diluted in DMEM (50 μL) with no serum and no antibiotics at a ratio of 3:1 (3 μL of Fastfect™ transfection reagent for 1 μg of DNA) and then quickly vortexed and briefly centrifuged. The Fastfect™/DMEM mixture was then added to the DNA mix and quickly vortexed and briefly centrifuged. The Fastfect™/DMEM/DNA mixture is then incubated for 15-20 min at room temperature, before being added to the cells (100 μL per well). The cells are then incubated at 37° C. and 5% CO2 for 5 h. […]"}}, "data": [{"compound": "CC[C@H](C)[C@H](NC(=O)[C@H](CCCCN)NC(=O)[C@H](CCCCN)NC(=O)[C@H](Cc1ccccc1)NC(=O)[C@H](CC(C)C)NC(=O)[C@H](CCCCN)NC(=O)[C@H](Cc1c[nH]c2ccccc12)NC(=O)[C@H](CCCCN)NC(=O)[C@H](Cc1c[nH]cn1)NC(=O)[C@H](Cc1c[nH]cn1)NC(=O)[C@H](Cc1c[nH]cn1)NC(=O)[C@H](Cc1c[nH]cn1)NC(=O)[C@H](Cc1c[nH]cn1)NC(=O)[C@@H](N)Cc1c[nH]cn1)C(=O)NCC(=O)N[C@@H](C)C(=O)N[C@H](C(=O)N[C@@H](CC(C)C)C(=O)N[C@@H](CCCCN)C(=O)N[C@H](C(=O)N[C@@H](CC(C)C)C(=O)N[C@H](C(=O)N[C@H](C(=O)NCC(=O)N[C@@H](Cc1ccc(O)cc1)C(=O)N[C@@H](C)C(=O)N[C@@H](CCCNC(=N)N)C(=O)N[C@@H](C)C(=O)N[C@@H](C)C(=O)N[C@@H](C)C(=O)N[C@@H](CCCNC(=N)N)C(=O)N[C@@H](CCC(N)=O)C(=O)N[C@@H](C)C(=O)N[C@@H](CCCNC(=N)N)C(=O)N[C@@H](C)C(=O)O)[C@@H](C)O)[C@@H](C)O)C(C)C)C(C)C", "note": "[His-CM18-PTD4]", "values": [{"measurement": "in vivo delivery of GFP-NLS to cell nuclei", "setting": "[1]", "result": "delivery of the GFP-NLS in the nucleus of cells from the deeper layers of the parietal cortex (injection site) to the corpus callus and the dorsal level of the striatum (putamen)"}, {"measurement": "Cell viability (%) (±St. Dev.; n = 3)", "setting": "[2]", "result": "71.6 ± 1.0", "unit": "%"}, {"measurement": "Mean % cells with GFP signal (±St. Dev.; n = 3)", "setting": "[2]", "result": "24.4 ± 0.6", "unit": "%"}, {"measurement": "GFP expression after CRISPR/Cas9-NLS cleavage of plasmid surrogate", "setting": "[3]", "result": "GFP fluorescence, the latter resulting from removal of the STOP codon by the transduced CRISPR/Cas9-NLS complex"}]}]}
